Literature values as cited in patent publication US20050137198A1, “Stable hydrazalazine pharmaceutical compositions” (priority 2003, published 2005).
Where two headings read alike, the source gives them in different places.

System: vascular smooth muscle

In the case of `NNc1nncc2ccccc12` [Hydralazine, 1-hydrazinophthalazine], the onset of action (given intravenously) is listed as 10 to 20 min, the duration of action (in vivo) is listed as 3 to 4 h and the onset of action (in vivo) is listed as 10 to 30 min. The “time of maximum hypotensive effect” value (in vivo) was 10 to 80 min.
